# PMC5218480 (PLoS ONE, 2017)
# Tested on: MV-4-11 cells
# Assay: Gene expression microarray analysis (Affymetrix PrimeView) and GSEA
# Type: cell-based, human
# Parameters: RFU PODN (11730768_x_at) / Fold change /veh PODN (11730768_x_at) / RFU LINC00158 (11744669_a_at) / Fold change /veh LINC00158 (11744669_a_at) / RFU DUSP10 (11751237_a_at) / Fold change /veh DUSP10 (11751237_a_at) / RFU ID3 (11757404_x_at) / Fold change /veh ID3 (11757404_x_at) / RFU PLEKHG5 (11737974_s_at) / Fold change /veh PLEKHG5 (11737974_s_at) / RFU LRRC4B (11730491_at) / Fold change /veh LRRC4B (11730491_at) / RFU GIMAP4 (11747438_a_at) / Fold change /veh GIMAP4 (11747438_a_at) / RFU KRT8 (11758183_x_at) / Fold change /veh KRT8 (11758183_x_at) / RFU CNN1 (11734310_a_at) / Fold change /veh CNN1 (11734310_a_at) / RFU VPS37D (11726825_at) / Fold change /veh VPS37D (11726825_at) / RFU C10orf10 (11716522_x_at) / Fold change /veh C10orf10 (11716522_x_at) / RFU KIR2DL2 /// KIR2DL4 /// KIR2DL5A /// KIR2DL5B /// KIR2DS1 /// KIR2DS2 /// KIR2DS3 /// KIR2DS4 /// KIR3DL3 /// KIR3DL3 /// KIR3DS1 (11738374_at) / Fold change /veh KIR2DL2 /// KIR2DL4 /// KIR2DL5A /// KIR2DL5B /// KIR2DS1 /// KIR2DS2 /// KIR2DS3 /// KIR2DS4 /// KIR3DL3 /// KIR3DL3 /// KIR3DS1 (11738374_at) / RFU C1QL1 (11718748_at) / Fold change /veh C1QL1 (11718748_at) / RFU TMPRSS4 (11747572_a_at) / Fold change /veh TMPRSS4 (11747572_a_at) / RFU HAMP (11756126_x_at) / Fold change /veh HAMP (11756126_x_at) / RFU RNFT2 (11725882_a_at) / Fold change /veh RNFT2 (11725882_a_at) / RFU NR4A2 (11747474_a_at) / Fold change /veh NR4A2 (11747474_a_at) / RFU ABCC12 (11746883_a_at) / Fold change /veh ABCC12 (11746883_a_at) / RFU TMEM136 (11760407_x_at) / Fold change /veh TMEM136 (11760407_x_at) / RFU CLDN22 /// WWC2 (11732394_at) / Fold change /veh CLDN22 /// WWC2 (11732394_at) / RFU HLA-DPB1 (11760878_x_at) / Fold change /veh HLA-DPB1 (11760878_x_at) / RFU SPINT1 (11716480_a_at) / Fold change /veh SPINT1 (11716480_a_at) / RFU GAP43 (11754022_s_at) / Fold change /veh GAP43 (11754022_s_at) / RFU A4GNT (11735810_at) / Fold change /veh A4GNT (11735810_at) / RFU PRB3 (11715151_x_at) / Fold change /veh PRB3 (11715151_x_at) / RFU TUBB4B (11761932_at) / Fold change /veh TUBB4B (11761932_at) / RFU CAPN14 (11732068_a_at) / Fold change /veh CAPN14 (11732068_a_at) / RFU TMCC2 (11721928_a_at) / Fold change /veh TMCC2 (11721928_a_at) / RFU IRGQ (11745062_a_at) / Fold change /veh IRGQ (11745062_a_at) / RFU FAM174B (11720279_a_at) / Fold change /veh FAM174B (11720279_a_at) / RFU TMPRSS4 (11748680_a_at) / Fold change /veh TMPRSS4 (11748680_a_at) / RFU FAM212B (11763350_a_at) / Fold change /veh FAM212B (11763350_a_at) / RFU PLEKHG5 (11743358_a_at) / Fold change /veh PLEKHG5 (11743358_a_at) / RFU ZSCAN30 (11745921_a_at) / Fold change /veh ZSCAN30 (11745921_a_at) / RFU CMKLR1 (11741424_a_at) / Fold change /veh CMKLR1 (11741424_a_at) / RFU LOC101060620 /// MAPK8IP1 (11723275_at) / Fold change /veh LOC101060620 /// MAPK8IP1 (11723275_at) / RFU SPTSSB (11747773_x_at) / Fold change /veh SPTSSB (11747773_x_at) / RFU PRSS12 (11739890_at) / Fold change /veh PRSS12 (11739890_at) / RFU BIN1 (11741810_x_at) / Fold change /veh BIN1 (11741810_x_at) / RFU WNT11 (11732464_a_at) / Fold change /veh WNT11 (11732464_a_at) / RFU C10orf10 (11716521_a_at) / Fold change /veh C10orf10 (11716521_a_at) / RFU C5orf56 (11738089_at) / Fold change /veh C5orf56 (11738089_at) / RFU CYB561 (11721691_x_at) / Fold change /veh CYB561 (11721691_x_at) / RFU ANKRD19P (11752326_a_at) / Fold change /veh ANKRD19P (11752326_a_at) / RFU OR2T12 /// OR2T33 /// OR2T8 (11738714_s_at) / Fold change /veh OR2T12 /// OR2T33 /// OR2T8 (11738714_s_at) / RFU VCAN (11748164_a_at) / Fold change /veh VCAN (11748164_a_at) / RFU JSRP1 (11732532_at) / Fold change /veh JSRP1 (11732532_at) / RFU KRTAP10-11 (11738290_x_at) / Fold change /veh KRTAP10-11 (11738290_x_at) / RFU MYO3A (11730013_a_at) / Fold change /veh MYO3A (11730013_a_at) / RFU EBF3 (11725865_a_at) / Fold change /veh EBF3 (11725865_a_at) / RFU CAMK2N1 (11719241_x_at) / Fold change /veh CAMK2N1 (11719241_x_at) / RFU C5orf56 (11738088_a_at) / Fold change /veh C5orf56 (11738088_a_at) / RFU OLFML3 (11715873_a_at) / Fold change /veh OLFML3 (11715873_a_at) / RFU LOC100653217 /// NTM (11731650_a_at) / Fold change /veh LOC100653217 /// NTM (11731650_a_at) / RFU MAPK11 (11762145_a_at) / Fold change /veh MAPK11 (11762145_a_at) / RFU FIZ1 (11724087_x_at) / Fold change /veh FIZ1 (11724087_x_at) / RFU OASL (11726364_x_at) / Fold change /veh OASL (11726364_x_at) / RFU SOX15 (11748057_x_at) / Fold change /veh SOX15 (11748057_x_at) / RFU CD79A (11719716_a_at) / Fold change /veh CD79A (11719716_a_at) / RFU HIST1H1D (11736915_at) / Fold change /veh HIST1H1D (11736915_at) / RFU CASKIN2 (11723855_a_at) / Fold change /veh CASKIN2 (11723855_a_at) / RFU LOC730098 (11760151_x_at) / Fold change /veh LOC730098 (11760151_x_at) / RFU OR4N2 (11742367_at) / Fold change /veh OR4N2 (11742367_at) / RFU PRRT2 (11749266_a_at) / Fold change /veh PRRT2 (11749266_a_at) / RFU SNX32 (11753110_a_at) / Fold change /veh SNX32 (11753110_a_at) / RFU CDHR5 (11726645_a_at) / Fold change /veh CDHR5 (11726645_a_at) / RFU RCAN1 (11760418_a_at) / Fold change /veh RCAN1 (11760418_a_at) / RFU FAM167A (11723789_a_at) / Fold change /veh FAM167A (11723789_a_at) / RFU FAM26E (11764081_at) / Fold change /veh FAM26E (11764081_at) / RFU ISYNA1 (11749810_s_at) / Fold change /veh ISYNA1 (11749810_s_at) / RFU ACY1 (11761880_at) / Fold change /veh ACY1 (11761880_at) / RFU 11764098_at / Fold change /veh 11764098_at / RFU SAMD14 (11745864_x_at) / Fold change /veh SAMD14 (11745864_x_at) / RFU NPB (11741838_a_at) / Fold change /veh NPB (11741838_a_at) / RFU TMPRSS6 (11731388_a_at) / Fold change /veh TMPRSS6 (11731388_a_at) / RFU KRTAP10-2 (11738614_at) / Fold change /veh KRTAP10-2 (11738614_at) / RFU ARHGAP8 /// PRR5-ARHGAP8 (11727945_x_at) / Fold change /veh ARHGAP8 /// PRR5-ARHGAP8 (11727945_x_at) / RFU KRTAP5-7 /// NADSYN1 (11734609_at) / Fold change /veh KRTAP5-7 /// NADSYN1 (11734609_at) / RFU RASL12 (11751679_a_at) / Fold change /veh RASL12 (11751679_a_at) / RFU CDKN2B (11736163_a_at) / Fold change /veh CDKN2B (11736163_a_at) / RFU PRF1 (11729649_at) / Fold change /veh PRF1 (11729649_at) / RFU, ZNF638 /// ZNF638-IT1 / Fold change vs veh, ZNF638 /// ZNF638-IT1 / RFU, PANK3 / Fold change vs veh, PANK3 / RFU, SH3YL1 / Fold change vs veh, SH3YL1 / RFU, ZEB2 / Fold change vs veh, ZEB2 / RFU, NRIP1 / Fold change vs veh, NRIP1 / RFU, PTTG1IP / Fold change vs veh, PTTG1IP / RFU, CAPN2 / Fold change vs veh, CAPN2 / RFU, MED14 / Fold change vs veh, MED14 / RFU, SNORA58 / Fold change vs veh, SNORA58 / RFU, C1orf63 / Fold change vs veh, C1orf63 / RFU, LRRFIP1 / Fold change vs veh, LRRFIP1 / RFU, NDUFAF7 / Fold change vs veh, NDUFAF7 / RFU, SLC12A2 / Fold change vs veh, SLC12A2 / RFU, IBTK / Fold change vs veh, IBTK / RFU, ESF1 / Fold change vs veh, ESF1 / Fold change vs veh, TMEM50B / RFU, TAOK1 / Fold change vs veh, TAOK1 / RFU, ACBD3 / Fold change vs veh, ACBD3 / RFU, TMA16 / Fold change vs veh, TMA16 / RFU, RWDD3 / Fold change vs veh, RWDD3 / RFU, BCAT1 / Fold change vs veh, BCAT1 / RFU, EDEM3 / Fold change vs veh, EDEM3 / RFU, TMEM33 / Fold change vs veh, TMEM33 / RFU, WDR75 / Fold change vs veh, WDR75 / RFU, AHCTF1 / Fold change vs veh, AHCTF1 / RFU, TFRC / Fold change vs veh, TFRC / RFU, ZDHHC17 / Fold change vs veh, ZDHHC17 / RFU, NOM1 / Fold change vs veh, NOM1 / RFU, ARL8B / Fold change vs veh, ARL8B / RFU, ZBTB11 / Fold change vs veh, ZBTB11 / RFU, TAMM41 / Fold change vs veh, TAMM41 / RFU, KIAA1704 /// LOC100996395 / Fold change vs veh, KIAA1704 /// LOC100996395 / RFU, ING1 / Fold change vs veh, ING1 / RFU, TRMT61B / Fold change vs veh, TRMT61B / RFU, FUBP3 / Fold change vs veh, FUBP3 / RFU, TP53 / Fold change vs veh, TP53 / RFU, TNKS2 / Fold change vs veh, TNKS2 / RFU, ZFP14 / Fold change vs veh, ZFP14 / RFU, ACTR2 / Fold change vs veh, ACTR2 / RFU, PPP3R1 / Fold change vs veh, PPP3R1 / RFU, PIK3R1 / Fold change vs veh, PIK3R1 / RFU, HNRNPA1 / Fold change vs veh, HNRNPA1 / RFU, RNF170 / Fold change vs veh, RNF170 / RFU, ZNF28 / Fold change vs veh, ZNF28 / RFU, RNGTT / Fold change vs veh, RNGTT / RFU, OGT / Fold change vs veh, OGT / RFU, BRD1 / Fold change vs veh, BRD1 / RFU, MARS / Fold change vs veh, MARS / RFU, ZNF655 / Fold change vs veh, ZNF655 / RFU, FAHD1 / Fold change vs veh, FAHD1 / RFU, BDP1 / Fold change vs veh, BDP1 / RFU, LRRCC1 / Fold change vs veh, LRRCC1 / RFU, ARID1A / Fold change vs veh, ARID1A / RFU, ZNF146 / Fold change vs veh, ZNF146 / RFU, ZNF330 / Fold change vs veh, ZNF330 / RFU, GPN3 / Fold change vs veh, GPN3 / RFU, C9orf123 / Fold change vs veh, C9orf123 / RFU, N4BP2L2 / Fold change vs veh, N4BP2L2 / RFU, ARFIP1 / Fold change vs veh, ARFIP1 / RFU, FAM179B / Fold change vs veh, FAM179B / RFU, BCL10 / Fold change vs veh, BCL10 / RFU, UHRF1BP1L / Fold change vs veh, UHRF1BP1L / RFU, BET1 / Fold change vs veh, BET1 / RFU, CNOT2 / Fold change vs veh, CNOT2 / RFU, ZNF268 / Fold change vs veh, ZNF268 / Fold change vs veh, ZNF507 / RFU, DGCR2 / Fold change vs veh, DGCR2 / RFU, WDSUB1 / Fold change vs veh, WDSUB1 / Fold change vs veh, HSP90B1 /// MIR3652 / RFU, ADSS / Fold change vs veh, ADSS / RFU, GK / Fold change vs veh, GK / RFU, ZNF148 / Fold change vs veh, ZNF148 / RFU, TAF9 / Fold change vs veh, TAF9 / RFU, SLC1A5 / Fold change vs veh, SLC1A5 / RFU, SLMO2 / Fold change vs veh, SLMO2 / RFU, ABCC4 / Fold change vs veh, ABCC4 / RFU, LOC101060439 /// RAP1B / Fold change vs veh, LOC101060439 /// RAP1B / RFU, RFX7 / Fold change vs veh, RFX7 / RFU, GTPBP10 / Fold change vs veh, GTPBP10 / RFU, CNEP1R1 / Fold change vs veh, CNEP1R1 / RFU, BIVM-ERCC5 /// ERCC5 / Fold change vs veh, BIVM-ERCC5 /// ERCC5 / RFU, ILF3 / Fold change vs veh, ILF3 / RFU 11762660_at / Fold change /veh 11762660_at / RFU VCAN (11757783_s_at) / Fold change /veh VCAN (11757783_s_at) / RFU DDX43 (11728927_at) / Fold change /veh DDX43 (11728927_at) / RFU KRT8 (11758188_x_at) / Fold change /veh KRT8 (11758188_x_at) / RFU NKD1 (11759106_at) / Fold change /veh NKD1 (11759106_at) / RFU SRD5A1 (11742802_a_at) / Fold change /veh SRD5A1 (11742802_a_at) / RFU TPSAB1 /// TPSB2 (11721975_s_at) / Fold change /veh TPSAB1 /// TPSB2 (11721975_s_at) / RFU GSTM3 (11746129_a_at) / Fold change /veh GSTM3 (11746129_a_at) / RFU IL23R (11737362_x_at) / Fold change /veh IL23R (11737362_x_at) / RFU TMEM51 (11727254_a_at) / Fold change /veh TMEM51 (11727254_a_at) / RFU PIWIL2 (11732686_x_at) / Fold change /veh PIWIL2 (11732686_x_at) / RFU ORM1 (11744905_x_at) / Fold change /veh ORM1 (11744905_x_at) / RFU CCDC152 (11743942_at) / Fold change /veh CCDC152 (11743942_at) / RFU ECM1 (11717891_a_at) / Fold change /veh ECM1 (11717891_a_at) / RFU IL23R (11748794_a_at) / Fold change /veh IL23R (11748794_a_at) / RFU TNFAIP8L3 (11732012_x_at) / Fold change /veh TNFAIP8L3 (11732012_x_at) / RFU MBOAT4 (11741988_at) / Fold change /veh MBOAT4 (11741988_at) / RFU 11764193_at / Fold change /veh 11764193_at / RFU TMEM53 (11763286_at) / Fold change /veh TMEM53 (11763286_at) / RFU MAGEB2 (11727129_at) / Fold change /veh MAGEB2 (11727129_at) / RFU TMEM200A (11744735_a_at) / Fold change /veh TMEM200A (11744735_a_at) / RFU CCDC152 (11751479_a_at) / Fold change /veh CCDC152 (11751479_a_at) / RFU FAM211A (11726209_a_at) / Fold change /veh FAM211A (11726209_a_at) / RFU RGS16 (11746705_a_at) / Fold change /veh RGS16 (11746705_a_at) / RFU VCAN (11755009_s_at) / Fold change /veh VCAN (11755009_s_at) / RFU RHOB (11743442_s_at) / Fold change /veh RHOB (11743442_s_at) / RFU RGS16 (11720943_a_at) / Fold change /veh RGS16 (11720943_a_at) / RFU RGS16 (11720944_at) / Fold change /veh RGS16 (11720944_at) / RFU, VPS4B / Fold change vs veh, VPS4B / RFU, CREB1 / Fold change vs veh, CREB1 / RFU, DNAJC13 / Fold change vs veh, DNAJC13 / RFU, GNAQ / Fold change vs veh, GNAQ / RFU, CDK5R1 / Fold change vs veh, CDK5R1 / RFU, ZRANB3 / Fold change vs veh, ZRANB3 / RFU, CUL4A / Fold change vs veh, CUL4A / RFU, CCNY / Fold change vs veh, CCNY / RFU, UFL1 / Fold change vs veh, UFL1 / RFU, COG3 / Fold change vs veh, COG3 / RFU, DIAPH2 / Fold change vs veh, DIAPH2 / RFU, SKA2 / Fold change vs veh, SKA2 / RFU, AFF3 / Fold change vs veh, AFF3 / RFU, LMF1 / Fold change vs veh, LMF1 / RFU, IPO11 / Fold change vs veh, IPO11 / RFU, DFFB / Fold change vs veh, DFFB / RFU, FOXP1 / Fold change vs veh, FOXP1 / RFU, CARD8 / Fold change vs veh, CARD8 / RFU, STRN3 / Fold change vs veh, STRN3 / RFU, ADK / Fold change vs veh, ADK / RFU, RASSF2 / Fold change vs veh, RASSF2 / RFU, WIPF1 / Fold change vs veh, WIPF1 / RFU, LARP1B / Fold change vs veh, LARP1B / RFU, RASA1 / Fold change vs veh, RASA1 / RFU, RB1 / Fold change vs veh, RB1 / RFU, PPFIA1 / Fold change vs veh, PPFIA1 / RFU, MAT2A / Fold change vs veh, MAT2A / RFU, CCT5 / Fold change vs veh, CCT5 / RFU, WDR92 / Fold change vs veh, WDR92 / RFU, CUX1 / Fold change vs veh, CUX1 / RFU, TTC7A / Fold change vs veh, TTC7A / RFU, TMEM135 / Fold change vs veh, TMEM135 / RFU, DEPTOR / Fold change vs veh, DEPTOR / RFU, CPM / Fold change vs veh, CPM / RFU, DNAJB6 / Fold change vs veh, DNAJB6 / RFU, CACNA2D3 / Fold change vs veh, CACNA2D3 / RFU, DTX4 / Fold change vs veh, DTX4 / RFU, TFCP2 / Fold change vs veh, TFCP2 / RFU, GMCL1 /// GMCL1P1 / Fold change vs veh, GMCL1 /// GMCL1P1 / RFU, AEBP2 / Fold change vs veh, AEBP2 / RFU, SNHG1 /// SNORD22 /// SNORD25 /// SNORD26 /// SNORD27 /// SNORD28 /// SNORD29 /// SNORD31 / Fold change vs veh, SNHG1 /// SNORD22 /// SNORD25 /// SNORD26 /// SNORD27 /// SNORD28 /// SNORD29 /// SNORD31 / Fold change (Aza/veh), C12orf56 (ProbeSet 11735607_a_at) / Fold change (ACY-1035/veh), C12orf56 (ProbeSet 11735607_a_at) / Fold change (Aza/veh), FGFR1OP (ProbeSet 11751329_s_at) / Fold change (ACY-1035/veh), FGFR1OP (ProbeSet 11751329_s_at) / Fold change (Aza/veh), VPS36 (ProbeSet 11739960_a_at) / Fold change (ACY-1035/veh), VPS36 (ProbeSet 11739960_a_at) / RFU SYPL1 (11715823_x_at) / Fold change /veh SYPL1 (11715823_x_at) / RFU IGFBP7 (11715501_s_at) / Fold change /veh IGFBP7 (11715501_s_at) / RFU REEP3 (11722064_at) / Fold change /veh REEP3 (11722064_at) / RFU IGLL1 (11728026_x_at) / Fold change /veh IGLL1 (11728026_x_at): dose or concentration left out as unconfirmed
# Settings: ProbeSet 11757268_x_at; LIST B
compound,measurement,value
Nc1ccc(-c2cccs2)cc1NC(=O)c1ccc2c(c1)cc(C1CC1)n2CCN1CCOCC1 [ACY-1035],"Fold change vs veh, HNRNPA1",0.97
